Test results reported in US20050171358A1 (priority 2002, published 2005).

Assays:
Pyricularia oryzae = assay type: in vivo; details: 200 ppm spray on rice (Koshihikari, 3 leaf stage), inoculated next day; lesion numbers on third leaves after 7 days in green house, graded by Table 5
[1] = tested on: Colletotrichum lagenarium; details: 200 ppm spray on cucumber (3 leaf stage), inoculated next day; lesion numbers on first and second leaves after 7 days in green house, graded by Table 5

SMILES	Evaluation (effect for rice blast) (Pyricularia oryzae)	Evaluation (effect for cucumber anthracnose) [1]
COc1ccc(C(=O)NCc2cc(/C=C/C(C)C)no2)cc1	4 (1˜5)	4 (1˜5)
O=C(NCc1cc(Cc2ccccc2)no1)OC1CCCCC1	4 (1˜5)	
CC(C)c1cc(CNC(=O)Oc2ccccc2)on1 [I-4]	5 (0)	5 (0)
O=C(NCc1cc(C2CCCCC2)no1)Oc1ccccc1 [I-6, phenyl[(3-cyclohexyl-5-isoxazolyl)methyl]carbamate]	5 (0)	5 (0)
CC(C)Cc1cc(CNC(=O)Oc2ccccc2)on1 [I-8, phenyl [(3-isobutyl-5-isoxazolyl)methyl]carbamate]	3 (6˜10)	3 (6˜10)
Cc1ccc(-c2cc(CNC(=O)Oc3ccccc3)on2)cc1 [I-25, phenyl{[3-(4-tolyl)-5-isoxazolyl)methyl]carbamate]	5 (0)	
COc1ccc(-c2cc(CNC(=O)Oc3ccccc3)on2)cc1 [I-26, phenyl{[3-(4-methoxyphenyl)-5-isoxazolyl]methyl}carbamate]	5 (0)	5 (0)
O=C(NCc1cc(-c2ccc(F)cc2)no1)Oc1ccccc1 [I-27, phenyl{[3-(4-fluorophenyl)-5-isoxazolyl)methyl]carbamate]	5 (0)	5 (0)
O=C(NCc1cc(-c2ccccc2Cl)no1)Oc1ccccc1 [I-28, phenyl{[3-(2-chlorophenyl)-5-isoxazolyl]methyl}carbamate]	4 (1˜5)	5 (0)
O=C(NCc1cc(-c2cccc(Cl)c2)no1)Oc1ccccc1 [I-29, phenyl{[3-(3-chlorophenyl)-5-isoxazolyl)methyl]carbamate]	5 (0)	5 (0)
O=C(NCc1cc(-c2ccc(Cl)cc2)no1)Oc1ccccc1 [I-30, phenyl{[3-(4-chlorophenyl)-5-isoxazolyl)methyl]carbamate]	5 (0)	5 (0)
O=C(NCc1cc(-c2ccccn2)no1)Oc1ccccc1 [I-31, phenyl{[3-(2-pyrizyl)-5-isoxazolyl]methyl}carbamate]	4 (1˜5)	
O=C(NCc1cc(-c2cccs2)no1)Oc1ccccc1 [I-32, phenyl{[3-(2-thienyl)-5-isoxazolyl)methyl]carbamate]	5 (0)	
O=C(NCc1cc(-c2ccco2)no1)Oc1ccccc1 [I-33, phenyl{[3-(2-furyl)-5-isoxazolyl)methyl]carbamate]	5 (0)	5 (0)
O=C(NCc1cc(Cc2ccccc2)no1)Oc1ccccc1 [I-38, phenyl[(3-benzyl-5-isoxazolyl)methyl]carbamate]	5 (0)	5 (0)
O=C(NCc1cc(-c2ccccc2)no1)OCc1ccccc1 [I-41, benzyl [(3-phenyl-5-isoxazolyl)methyl]carbamate]	3 (6˜10)	4 (1˜5)
CC(C)(NC(=O)NCc1cc(-c2ccccc2)no1)c1ccccc1 [I-45]	4 (1˜5)	4 (1˜5)
CC(C)c1cc(CNC(=O)C(C)c2ccccc2)on1 (stereo not drawn) [I-47, N-[(3-isopropyl-5-isoxazolyl)methyl]-2-phenylpropanamide]	4 (1˜5)	4 (1˜5)
O=C(Cc1ccccc1)NCc1cc(-c2ccccc2)no1 [I-48, N-[(3-phenyl-5-isoxazolyl)methyl]-2-phenylethanamide]	4 (1˜5)	
O=C(NCc1cc(-c2ccccc2)no1)C(Cl)c1ccccc1 (stereo not drawn) [I-49, N-[(3-phenyl-5-isoxazolyl)methyl]-2-chloro-2-phenylethanamide]	3 (6˜10)	
CC(C)c1cc(CNC(=O)Cc2ccccc2)on1 [I-63, N-[(3-isopropyl-5-isoxazolyl)methyl]phenylacetamide]	2 (11˜20)	
CC(C)Cc1cc(CNC(=O)Cc2ccccc2)on1 [I-64, N-[(3-isobutyl-5-isoxazolyl)methyl]phenylacetamide]	2 (11˜20)	3 (6˜10)

SMILES	Evaluation (effect for rice blast) (Pyricularia oryzae)	Evaluation (effect for cucumber anthracnose) [1]
Cc1ccc(-c2cc(CNC(=O)Nc3ccccc3)on2)cc1 [II-2, 3-{[3-(4-tolyl)-5-isoxazolyl]methyl}-1-phenyl urea]	5 (0)	
CC(C)c1cc(CNC(=O)Nc2ccccc2)on1 [II-3, 1-[(3-isopropyl-5-isoxazolyl)methyl]-3-phenylurea]	3 (6˜10)	
O=C(NCc1cc(-c2ccccc2)no1)NC1CCCCC1 [II-7, 3-[(3-phenyl-5-isoxazolyl)methyl]-1-cyclohexyl urea]	5 (0)	5 (0)
Cc1ccc(-c2cc(CNC(=O)NC3CCCCC3)on2)cc1 [II-9, 1-{[3-(4-tolyl)-5-isoxazolyl]methyl}-3-cyclohexylurea]	5 (0)	5 (0)
Cc1ccc(-c2cc(CNC(=O)NC3CCCC3)on2)cc1 [II-10, 3-[3-(4-tolyl)-5-isoxazolyl]methyl-1-cyclopentylurea]	4 (1˜5)	5 (0)
CN(C(=O)NCc1cc(-c2ccccc2)no1)c1ccccc1 [II-12, 3-[(3-phenyl-5-isoxazolyl]methyl]-1-methyl-1-phenyl urea]	4 (1˜5)	4 (1˜5)
O=C(NCc1cc(Cc2ccccc2)no1)NC1CCCCC1 [II-13, 1-[(3-benzyl-5-isoxazolyl)methyl]-3-cyclohexylurea]	5 (0)	5 (0)
O=C(NCc1cc(Cc2ccccc2)no1)NC1CCCC1 [II-14, 1-[(3-benzyl-5-isoxazolyl)methyl]-3-cyclopentylurea]	4 (1˜5)	5 (0)
CC(C)c1cc(CNC(=O)NC2CCCCC2)on1 [II-15, 1-[(3-isopropyl-5-isoxazolyl)methyl]-3-cyclohexylurea]	3 (6˜10)	4 (1˜5)
O=C(NCc1cc(-c2ccccc2)no1)Nc1cccc(Cl)c1 [II-49, 1-[(3-phenyl-5-isoxazolyl)methyl]-3-(3-chlorophenyl)urea]	4 (1˜5)	
O=C(NCc1cc(-c2ccccc2)no1)Nc1ccc(Cl)cc1 [II-50, 1-[(3-phenyl-5-isoxazolyl)methyl]-3-(4-chlorophenyl)urea]	5 (0)	
O=C(NCc1cc(-c2ccccc2)no1)Nc1ccccn1 [II-99, 1-[(3-phenyl-5-isoxazolyl)methyl]-3-(2-pyridyl)urea]	3 (6˜10)	
CC(=O)Nc1ccc(-c2cc(CNC(=O)c3ccc(C)cc3)on2)cc1 [III-57, N-{[3-(4-acetamidophenyl)-5-isoxazolyl]methyl}-4-methylbenzamide]	2 (11˜20)	
Cc1ccc(-c2cc(CNC(=O)N3CCCCC3)on2)cc1 [III-203]	2 (11˜20)	
CC1C(Cl)(Cl)C1(C)C(=O)NCc1cc(-c2ccccc2)no1 (stereo not drawn) [III-212]	2 (11˜20)	
CC(NC(=O)C1(C)C(C)C1(Cl)Cl)c1cc(-c2ccccc2)no1 (stereo not drawn) [III-213, N-[1-(3-phenyl-5-isoxazolyl)ethyl]-2,2-dichloro-1,3-dimethylcyclopropanecarboxamide]	3 (6˜10)	
CCc1ccc(C(=O)NCc2cc(Cc3ccccc3)no2)cc1 [IV-6, N-[(3-benzyl-5-isoxazolyl)methyl]-4-ethylbenzamide]	5 (0)	
CS(=O)(=O)c1ccc(C(=O)NCc2cc(Cc3ccccc3)no2)cc1 [IV-8, N-[(3-benzyl-5-isoxazolyl)methyl]-4-methanesulfonylbenzamide]	3 (6˜10)	
COc1ccc(C(=O)NCc2cc(COc3ccccc3C#N)no2)cc1 [IV-51, N-{[3-(2-cyanophenyl)oxymethyl-5-isoxazolyl]methyl}-4-methoxybenzamide]	2 (11˜20)	
COc1ccc(C(=O)NCc2cc(COc3cccnc3)no2)cc1 [IV-91, N-{[3-(3-pyridyl)oxymethyl-5-isoxazolyl]methyl}-4-methoxybenzamide]	3 (6˜10)	
COc1ccc(C(=O)NCc2cc(C(=O)c3ccccc3)no2)cc1 [IV-98, N-[(3-benzoyl-5-isoxazolyl)methyl]-4-methoxybenzamide]	2 (11˜20)	
COc1ccc(C(=O)NCc2cc(C(=O)Nc3ccc(Cl)cc3)no2)cc1 [IV-106, N-{[3-(4-chlorophenyl)aminocarbonyl-5-isoxazolyl]methyl}-4-methoxybenzamide]	2 (11˜20)	
